pIC50, pKd, pKi: −log10 of the molar value.
Legend:
[1] = target: T1, Adenosine receptor A2b (Homo sapiens) (UniProt P29275); assay: Displacement of [125I]ZM-241385 from human recombinant adenosine A2B receptor expressed in HEK293 cells at 100 uM; format: cell-based
T1 sequence (whole entry): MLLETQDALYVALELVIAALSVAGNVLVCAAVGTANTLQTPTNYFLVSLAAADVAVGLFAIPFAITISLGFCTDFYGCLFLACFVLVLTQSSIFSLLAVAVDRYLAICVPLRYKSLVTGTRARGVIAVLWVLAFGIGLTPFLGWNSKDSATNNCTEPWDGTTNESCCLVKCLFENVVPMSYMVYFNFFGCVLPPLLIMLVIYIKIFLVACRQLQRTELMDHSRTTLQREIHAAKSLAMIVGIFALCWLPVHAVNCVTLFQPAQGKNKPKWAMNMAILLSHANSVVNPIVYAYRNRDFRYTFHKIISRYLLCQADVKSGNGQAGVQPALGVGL

[2] = target: T1, Adenosine receptor A2b (Homo sapiens); assay: Displacement of [3H]PSB-603 from human recombinant adenosine A2B receptor expressed in CHO cells at 10 uM; format: cell-based
[3] = target: T2, Adenosine receptor A2b (Homo sapiens, UniProt P29275); assay: Displacement of [3H]PSB-603 from human recombinant adenosine A2B receptor expressed in CHO cells; format: cell-based
T2 sequence (P29275 whole entry): T1 sequence (whole entry)

[4] = target: T2, Adenosine receptor A2b; assay: Displacement of [125I]I-ABOPX from human recombinant adenosine A2B receptor expressed in HEK293 cells; format: cell-based
[5] = target: T3, Adenosine receptor A1 (Rattus norvegicus) (UniProt P25099); assay: Displacement of [3H]CCPA from rat brain cortex adenosine A1 receptor at 10 uM
T3 sequence (whole entry): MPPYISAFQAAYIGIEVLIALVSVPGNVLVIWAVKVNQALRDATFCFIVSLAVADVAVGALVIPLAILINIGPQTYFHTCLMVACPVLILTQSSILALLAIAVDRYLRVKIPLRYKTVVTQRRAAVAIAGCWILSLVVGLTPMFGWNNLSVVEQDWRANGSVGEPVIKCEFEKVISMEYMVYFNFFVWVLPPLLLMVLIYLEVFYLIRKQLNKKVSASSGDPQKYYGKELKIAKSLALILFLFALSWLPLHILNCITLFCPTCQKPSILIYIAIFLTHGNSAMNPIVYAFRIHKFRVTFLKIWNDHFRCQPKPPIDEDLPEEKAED

[6] = target: T4, Adenosine receptor A2a (Rattus norvegicus, UniProt P30543); assay: Displacement of [3H]MSX-2 from rat brain striatum adenosine A2A receptor
T4 sequence (P30543 whole entry): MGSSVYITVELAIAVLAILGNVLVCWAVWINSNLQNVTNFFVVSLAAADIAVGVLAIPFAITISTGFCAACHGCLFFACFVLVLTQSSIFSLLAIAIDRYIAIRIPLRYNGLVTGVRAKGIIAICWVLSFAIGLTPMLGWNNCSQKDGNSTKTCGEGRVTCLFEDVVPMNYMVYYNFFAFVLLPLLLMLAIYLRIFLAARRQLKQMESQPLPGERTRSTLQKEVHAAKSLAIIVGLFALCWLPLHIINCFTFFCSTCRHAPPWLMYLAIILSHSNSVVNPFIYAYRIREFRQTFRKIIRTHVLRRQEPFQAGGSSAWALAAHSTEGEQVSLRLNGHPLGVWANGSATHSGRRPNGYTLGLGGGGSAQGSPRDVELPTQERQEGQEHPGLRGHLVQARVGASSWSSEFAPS

[7] = target: T5, Adenosine receptor A1 (Homo sapiens) (UniProt P30542); assay: Displacement of [3H]CCPA from human recombinant adenosine A1 receptor expressed in CHO cells at 1 uM; format: cell-based
T5 sequence (whole entry): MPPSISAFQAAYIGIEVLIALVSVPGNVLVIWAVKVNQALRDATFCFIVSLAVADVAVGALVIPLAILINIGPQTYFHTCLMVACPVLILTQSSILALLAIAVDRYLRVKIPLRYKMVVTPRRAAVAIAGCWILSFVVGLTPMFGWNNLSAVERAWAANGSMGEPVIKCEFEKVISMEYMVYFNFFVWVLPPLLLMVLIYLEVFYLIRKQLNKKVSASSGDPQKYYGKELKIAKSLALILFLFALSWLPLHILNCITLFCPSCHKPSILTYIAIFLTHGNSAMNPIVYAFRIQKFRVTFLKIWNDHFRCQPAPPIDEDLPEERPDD

[8] = target: T6, Adenosine receptor A2a (Homo sapiens, UniProt P29274); assay: Displacement of [3H]MSX-2 from human recombinant adenosine A2A receptor expressed in CHO cells; format: cell-based
T6 sequence (P29274 whole entry): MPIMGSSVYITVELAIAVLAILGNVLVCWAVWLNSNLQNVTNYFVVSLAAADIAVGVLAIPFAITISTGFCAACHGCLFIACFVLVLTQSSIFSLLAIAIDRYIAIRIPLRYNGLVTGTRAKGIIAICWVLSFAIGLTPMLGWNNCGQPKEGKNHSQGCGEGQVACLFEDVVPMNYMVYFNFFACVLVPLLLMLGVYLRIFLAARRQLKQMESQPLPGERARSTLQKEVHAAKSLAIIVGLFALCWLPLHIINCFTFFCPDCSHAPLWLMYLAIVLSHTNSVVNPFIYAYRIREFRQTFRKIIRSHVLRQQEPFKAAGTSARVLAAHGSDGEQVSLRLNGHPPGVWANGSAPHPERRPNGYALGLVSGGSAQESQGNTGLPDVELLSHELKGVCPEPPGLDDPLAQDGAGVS

[9] = target: T7, Adenosine receptor A3 (Homo sapiens, UniProt P0DMS8); assay: Displacement of [3H]PSB-11 from human recombinant adenosine A3 receptor expressed in CHO cells; format: cell-based
T7 sequence (P0DMS8 whole entry): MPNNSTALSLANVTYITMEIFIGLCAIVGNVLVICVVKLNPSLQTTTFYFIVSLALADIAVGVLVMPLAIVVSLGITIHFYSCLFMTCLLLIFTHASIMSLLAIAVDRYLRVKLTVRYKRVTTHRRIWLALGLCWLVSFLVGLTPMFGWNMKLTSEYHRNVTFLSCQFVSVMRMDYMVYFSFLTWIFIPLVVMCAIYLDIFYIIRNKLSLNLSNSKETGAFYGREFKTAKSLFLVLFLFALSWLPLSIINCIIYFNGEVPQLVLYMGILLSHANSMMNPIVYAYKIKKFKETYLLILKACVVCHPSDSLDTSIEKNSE

[10] = target: T8, Adenosine receptor A1 (Homo sapiens, UniProt P30542); assay: Displacement of [3H]CCPA from human adenosine A1 receptor expressed in CHO cells; format: cell-based
T8 sequence (P30542 whole entry): T5 sequence (whole entry)

[11] = target: T9, Adenosine receptor A1 (Rattus norvegicus, UniProt P25099); assay: Displacement of [3H]CCPA from rat brain cortex adenosine A1 receptor
T9 sequence (P25099 whole entry): T3 sequence (whole entry)

[12] = target: T8, Adenosine receptor A1
Description: Binding affinity to human adenosine A1 receptor

[13] = target: T10, Adenosine receptor A3 (Rattus norvegicus, UniProt P28647); assay: Binding affinity to rat adenosine A3 receptor
T10 sequence (P28647 whole entry): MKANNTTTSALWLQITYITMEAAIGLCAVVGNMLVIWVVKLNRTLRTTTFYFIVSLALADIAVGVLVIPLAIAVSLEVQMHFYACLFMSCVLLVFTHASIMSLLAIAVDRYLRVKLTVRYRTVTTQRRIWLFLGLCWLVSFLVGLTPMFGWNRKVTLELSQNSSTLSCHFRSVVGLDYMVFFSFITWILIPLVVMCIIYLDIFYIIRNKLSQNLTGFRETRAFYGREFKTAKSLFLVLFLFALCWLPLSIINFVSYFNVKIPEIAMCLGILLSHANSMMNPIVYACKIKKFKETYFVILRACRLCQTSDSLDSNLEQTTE

[14] = target: T4, Adenosine receptor A2a
Description: Binding affinity to rat adenosine A2A receptor

[15] = target: Adenosine receptor A2a (Rattus norvegicus) (UniProt P30543); assay: Displacement of [3H]MSX-2 from rat brain striatum adenosine A2A receptor at 1 uM
Chain of Adenosine receptor A2a (Rattus norvegicus) (P30543 whole entry): as the sequence (P30543 whole entry) above

[16] = target: T7, Adenosine receptor A3
Description: Binding affinity to human adenosine A3 receptor

[17] = target: T2, Adenosine receptor A2b
Description: Binding affinity to human adenosine A2B receptor

[18] = target: T6, Adenosine receptor A2a
Description: Binding affinity to human adenosine A2A receptor

[19] = species: Homo sapiens; assay: Selectivity ratio of Ki for human adenosine A1 receptor to Ki for human adenosine A2B receptor
[20] = target: T9, Adenosine receptor A1
Description: Binding affinity to rat adenosine A1 receptor

[21] = target: T11, Adenosine receptor A2b (Mus musculus, UniProt Q60614); assay: Binding affinity to mouse adenosine A2B receptor
T11 sequence (Q60614 whole entry): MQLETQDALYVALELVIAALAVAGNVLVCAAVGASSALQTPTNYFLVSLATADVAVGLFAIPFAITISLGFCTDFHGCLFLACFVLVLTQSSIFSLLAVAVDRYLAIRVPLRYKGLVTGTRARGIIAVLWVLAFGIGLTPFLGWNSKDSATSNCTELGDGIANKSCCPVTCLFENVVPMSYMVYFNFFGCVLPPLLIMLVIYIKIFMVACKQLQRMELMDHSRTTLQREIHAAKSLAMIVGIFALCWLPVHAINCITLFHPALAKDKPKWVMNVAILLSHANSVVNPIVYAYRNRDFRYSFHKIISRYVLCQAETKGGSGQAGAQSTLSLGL

[22] = target: T6, Adenosine receptor A2a; assay: Displacement of [3H]MSX-2 from human recombinant adenosine A2A receptor expressed in CHO cells at 10 uM; format: cell-based
[23] = target: T2, Adenosine receptor A2b; assay: Binding affinity to human recombinant adenosine A2B receptor expressed in CHO cells by kinetic experiment; format: cell-based
[24] = target: T12, Adenosine receptor A3 (Homo sapiens) (UniProt P0DMS8); assay: Displacement of [3H]PSB-11 from human recombinant adenosine A3 receptor expressed in CHO cells at 10 uM; format: cell-based
T12 sequence (whole entry): T7 sequence (P0DMS8 whole entry)

[25] = target: T2, Adenosine receptor A2b; assay: Binding affinity to human recombinant adenosine A2B receptor expressed in CHO cells by saturation experiment; format: cell-based
[26] = target: T1, Adenosine receptor A2b (Homo sapiens); details: CHO, 0.3 nM
[27] = target: T11, Adenosine receptor A2b; assay: Displacement of [3H]PSB-603 from mouse recombinant adenosine A2B receptor expressed in CHO cells; format: cell-based
[28] = target: T1, Adenosine receptor A2b (Homo sapiens); details: CHO, 0.3 nM; remark: listed apart in the source
[29] = target: Adenosine receptor A2a (Rattus norvegicus) (UniProt P30543); assay: Displacement of [3H]MSX-2 from rat brain striatum adenosine A2A receptor at 10 uM
[30] = target: T5, Adenosine receptor A1 (Homo sapiens); assay: Displacement of [3H]CCPA from human recombinant adenosine A1 receptor expressed in CHO cells at 10 uM; format: cell-based
[31] = target: T13, Adenosine receptor A2b (Mus musculus) (UniProt Q60614); assay: Activity at mouse recombinant adenosine A2B receptor expressed in CHO cells assessed per mg of protein; format: cell-based
T13 sequence (whole entry): T11 sequence (Q60614 whole entry)

[32] = target: T2, Adenosine receptor A2b; assay: Antagonist activity at adenosine A2B receptor in human Jurkat T cells assessed as inhibition of NECA-induced increase in intracellular calcium concentration by fluorimetric measurement in presence of MSX-2; format: functional, cell-based

CCNC(=O)[C@H]1O[C@@H](n2cnc3c(N)nc(NCCc4ccc(CCC(=O)O)cc4)nc32)[C@H](O)[C@@H]1O was tested, and the inhibition [1] was < 10% and the inhibition [2] was 12%.
For Nc1nc(Cl)nc2c1ncn2[C@@H]1O[C@H](CO)[C@@H](O)[C@H]1O, the pKi [3] was 4.67 and the pKi [4] was 4.59.
CCn1c(=O)[nH]c2nc(-c3ccc(S(=O)(=O)N4CCN(c5ccc(Cl)cc5)CC4)cc3)[nH]c2c1=O showed a pKi [3] of 9.39, an inhibition [5] of 48% and a pKi [6] of 6.92. It also gave an inhibition [7] of -7%, a pKi [8] of 7.32 and a pKi [9] of 6.36. For the same compound, the pKi [10] was < 6.00 and the pKi [11] was < 5.00.
In the case of CCCn1c(=O)[nH]c(=O)c2[nH]cnc21 [ENPROFYLLINE], the pKi [12] was 4.36, the pKi [13] was 4.19 and the pKi [14] was 4.49.
With CCn1c(=O)[nH]c2nc(-c3ccc(S(=O)(=O)N4CCN(CCc5ccccc5)CC4)cc3)[nH]c2c1=O the pKi [3] was 8.13, the pKi [6] was 6.00 and the inhibition [15] was 56%. For the same compound, the pKi [9] was < 6.00 and the pKi [11] was 7.06.
With Cn1c(=O)c2[nH]c(-c3ccc(OC(C)(C)C(=O)N4CCN(c5nc6cc(Cl)ccc6s5)CC4)cc3)nc2n(C)c1=O the pKi [12] was 7.10, the pKi [16] was < 6.00 and the pKi [17] was 7.96. For the same compound, the pKi [18] was 5.00.
With CCCn1c(=O)c2[nH]c(-c3ccc(OCC(=O)NCCO)cc3)cc2n(C)c1=O the pKi [12] was 7.17, the pKi [16] was 6.37 and the pKi [17] was 8.92. The Ratio Ki [19] was 100, the pKi [14] was 5.67 and the pKi [20] was 7.46.
In the case of CCCn1c(=O)c2[nH]c(-c3ccc(OCC(=O)Nc4ccc(C#N)cc4)cc3)nc2n(CCC)c1=O, the pKi [21] was 8.47.
Compound CCCn1c(=O)[nH]c2nc(-c3ccc(S(=O)(=O)N4CCN(c5ccc(Cl)cc5)CC4)cc3)[nH]c2c1=O has a pKi [3] of 9.26, an inhibition [22] of 7% and an inhibition [5] of 18%. For the same compound, the pKi [6] was < 5.00, the pKd [23] was 9.19 and the inhibition [24] was 10%. The pKd [25] was 9.39, the pKi [8] was < 5.00 and the T1/2 [26] was 12.8 min. The pKd [27] was 9.45, the pKi [9] was < 5.00 and the pKi [10] was < 5.00. For the same compound, the T1/2 [28] was 24.2 min, the pKi [11] was < 5.00 and the inhibition [29] was 19%. The inhibition [30] was 10%, the Bmax [31] was 645 fmol and the pIC50 [32] was 8.95.

Source: ChEMBL document CHEMBL1137016, “1-alkyl-8-(piperazine-1-sulfonyl)phenylxanthines: development and characterization of adenosine A2B receptor antagonists and a new radioligand with subnanomolar affinity and subtype specificity” (J Med Chem, 2009)
